Laboratory results as given in patent US9617331B2, “Methods of regulating angiogenesis by administering agents which increase apoB-100 polypeptide” (Yeda Research and Development Co. Ltd., priority 2011, dated 2017).

Tests used:
[1] = system: subintestinal vessels (SIVs) of wild type zebrafish; assay: Ectopic subintestinal vessel (SIV) sprouting in wild type zebrafish (AP staining / confocal imaging); assay type: in vivo; conditions: for ectopic SIV branching: 3.5 dpf wild type larva treated with 10 μM at 2.5 dpf, vs DMSO
Procedure: (§1) FIG. 6 illustrates quantitation of SW vascular plexus width and ectopic ventral SW sprout number and length. The maximal width of the normal SIV plexus is measured from supraintestinal artery to subintestinal vein (1). The number of ectopic sprouts greater than 1 μm in length projecting ventrally from the subintestinal vein is counted, and the total length of all of these sprouts (2) is measured. […] Scale bar 30 μm.
Zebrafish Husbandry and Injection: Zebrafish were raised by standard methods. The Tg(fli1:EGFP)^y1, Tg(fli1:nEGFP)^y7 [Yaniv et al., Nat Med 12, 711-716 (2006)] and Tg(flt1:YFP)^hu4624 [Hogan et al., Nat Genet 41, 396-398 (2009)] lines were previously derived. MOs and DNA were injected as further described below.
(§2) Microangiography and Cell Transplants: 10 μM Atorvastatin (Sigma), 1 ug/μl DiI-LDL (Invitrogen), 6 μg/ml C6 in 0.5% BSA Fatty Acid Free (Sigma A8806) and Human Apolipoprotein B-100 (A50220H Meridian Life Science) in 0.5% BSA Fatty Acid Free (Sigma A8806) microangiography was performed at 2.5 dpf as described [Isogai et al., Dev Biol 230, 278-301 (2001)]. HEK293 cells co-transfected with Huh7MTP+apoB34 (see herein below) or un-transfected control cells were transplanted into the perivitelline space of one side of the yolk of 2.5 dpf stl; Tg(fli1:EGFP)^y1 mutant or WT embryos, ventral to the developing SIVs [Nicoll et al., J Cell Mol Med (2008)].
(§3) In Situ Hybridization, Oil Red 0, and Alkaline Phosphatase (AP) Staining: Embryos were fixed overnight in 4% PFA and processed for AP staining [Habeck et al., Curr Biol 12, 1405-1412 (2002)], Oil Red 0 staining [Schlegel et al., Biochemistry 45, 15179-15187 (2006)], or whole-mount in situ hybridization using antisense mRNA probes for vegfr1, vegfr2, vegfr3 and VeCad as described [Pham et al., Dev Biol 303, 772-783 (2007)].
Microscopy and Imaging: Zebrafish embryos used for imaging or in situ hybridization were treated with 0.00 3% phenylthiourea from 8hpf to inhibit melanin pigment formation. […]

[2] = system: WT zebrafish embryos; assay: Survival of WT zebrafish embryos treated with oleic acid; assay type: in vivo; conditions: increasing concentrations
Procedure: FIG. 11 is a survival curve of WT zebrafish embryos treated with increasing concentrations of oleic acid. Only embryos treated with less than 6 μg/ml oleic acid survived until 6 dpf.

[3] = system: stl mutants; assay: Rescue of ectopic SIV sprouts in stl mutant zebrafish; assay type: in vivo; conditions: for excess angiogenesis / ectopic branching phenotype of stl mutants: intravascular supply at 2.5 dpf
Procedure: as §1
Cloning of mtp and Rescue of the Mutant Phenotype: The full-length coding sequence of zebrafish mtp was amplified by PCR from WT cDNA and cloned into a pCSDest vector [Villefranc et al., Dev Dyn 236, 3077-3087 (2007)] as further described herein below. mtp mRNA was synthesized with mMessage mMachine kit (Ambion) and injected at a concentration of 232 pg per embryo into the 1 cell stage cytoplasm or into the YSL at dome stage (approximately at 4 hpf).
as §2, §3
pCS2vegfrlCDS mRNA ([…]) and pCS2mtpCDSmRNA ([…]) were injected at the 1 cell stage or at dome stage, respectively.
(§4) Fatty Acids Feeding of Zebrafish Embryos: Dechorionized 24 hours post fertilization (hpf) embryos were incubated with 6 μg/ml short, intermediate or long chain fatty acid in a solution containing 0.1% BSA Fatty Acid Free (Sigma A8806) for 48 hours. Embryos were then fixed overnight in 4% PFA and processed for AP staining.

[4] = system: apoCII morphants; assay: Fatty acid feeding of apoCII morphants, trunk ISV phenotype; assay type: in vivo, zebrafish; conditions: medium supplemented with 6 μg/ml (C6)
Procedure: as §4

[5] = system: trunk ISVs; assay: Trunk intersegmental vessel (ISV) phenotype of morpholino-injected zebrafish; assay type: in vivo; conditions: 3.5 dpf MO-injected zebrafish
Procedure: Microscopy and Imaging: Zebrafish embryos used for imaging or in situ hybridization were treated with 0.00 3% phenylthiourea from 8hpf to inhibit melanin pigment formation. Confocal imaging was performed using a FVIOOO Olympus imaging system or Zeiss LSM780 upright confocal microscope equipped with ×20 NA 1.0 lens.
Injection of Zebrafish Embryos: The mtp [Schlegel, A. & Stainier, D. Y. Biochemistry 45, 15179-15187 (2006)], apoCII [Pickart, M. A., et al. PLoS One 1, e104 (2006);
MOs (Gene-Tools) were resuspended and injected at concentrations from 5-20 ng/embryo.

[6] = stl mutants injected intravascularly at 2.5 dpf, vs not injected

CC(C)c1c(C(=O)Nc2ccccc2)c(-c2ccccc2)c(-c2ccc(F)cc2)n1CC[C@@H](O)C[C@@H](O)CC(=O)O [atorvastatin, Atorvastatin]
ectopic SIV branching [1]: efficiently phenocopied the excess angiogenesis phenotype of stl mutants
ectopic SIV branching ([1]; listed as Atorvastatin): results in ectopic SW branching

CCCCCCCC/C=C\CCCCCCCC(=O)O [oleic acid]
oleic acid concentration at which embryos survived until 6 dpf [2]: less than 6 μg/ml

CCCCCC(=O)O [scFA]
ectopic vessels phenotype of stl mutants ([3]; 3.5 dpf stl mutants, 6 μg/ml fatty acid in embryo medium): did not inhibit the ectopic vessels phenotype
excess angiogenesis / ectopic branching phenotype of stl mutants [3]: did not rescue the ectopic branching phenotype
trunk ISV phenotype of apoCII morphants [4]: No phenotypic changes were detected

delipidated form of apoB-100: Human Apolipoprotein B-100 (A50220H Meridian Life Science)
excess angiogenesis / ectopic branching phenotype of stl mutants [3]: efficiently reverted the excess angiogenesis phenotype
average number of ectopic SIV segments [3, 6]: significantly reduced
average total length of ectopic SIV segments [3, 6]: significantly reduced

vegfr1 MO: vegfr1 ATG blocking morpholino, SEQ ID NO: 1, 5′-ATATCGAACATTCTCTTGGTCTTGC-3′ (all phosphorodiamidate morpholino (PMO))
ectopic SIV sprouts after morpholino injection ([1]; 3.5 dpf Tg(fli-EGFP)y1 zebrafish, MO-injected): ectopic SIV sprouts
trunk ISV phenotype [5]: ectopic branching and sprouting
